Measured values reported in patent US6737383B1, “Herbicidal oxadiazolidines” (priority 1999, dated 2004).

Columns and labels:
[1] = tested on: purple nutsedge; experiment: Test B pre/postemergence purple nutsedge; type: in vivo, Cyperus rotundus
Method in brief: (§1)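 Response is a visual 0-to-10 score relative to untreated plants, where 0 means no effect and 10 means complete control, taken twelve to sixteen days after application. Treatments went onto soil at planting and onto foliage of 1- to 4-leaf plants, using a surfactant-containing non-phytotoxic solvent.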

[2] = tested on: sugar beet; experiment: Test B pre/postemergence sugar beet; type: in vivo, Beta vulgaris
Method in brief: as §1

[3] = tested on: soybean; experiment: Test B pre/postemergence soybean; type: in vivo, Glycine max
Method in brief: as §1

[4] = tested on: surinam grass; experiment: Test B pre/postemergence surinam grass; type: in vivo, Brachiaria decumbens
Method in brief: as §1

[5] = tested on: pigweed; experiment: Test B pre/postemergence pigweed; type: in vivo, Amaranthus retroflexus
Method in brief: as §1

[6] = tested on: morningglory; experiment: Test B pre/postemergence morningglory; type: in vivo, Ipomoea hederacea
Method in brief: as §1

[7] = tested on: cocklebur; experiment: Test B pre/postemergence cocklebur; type: in vivo, Xanthium strumarium
Method in brief: as §1

[8] = tested on: smallflower flatsedge; experiment: Test B flood test smallflower flatsedge; type: in vivo, Cyperus difformis
Method in brief: (§2)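 Each value is a visual injury score relative to controls, with 10 meaning complete control and 0 no effect. Evaluation took place twelve to sixteen days after the 2-leaf-stage plants were treated and kept in the greenhouse.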

[9] = tested on: rice; experiment: Test B flood test rice; type: in vivo, Oryza sativa
Method in brief: as §2

[10] = tested on: bedstraw; experiment: Test B pre/postemergence bedstraw; type: in vivo, Galium aparine
Method in brief: as §1

[11] = tested on: corn; experiment: Test B pre/postemergence corn; type: in vivo, Zea mays
Method in brief: as §1

[12] = tested on: bamyardgrass; experiment: Test B flood test barnyardgrass; type: in vivo, Echinochloa crus-galli
Method in brief: as §2

[13] = tested on: wild oat; experiment: Test B pre/postemergence wild oat; type: in vivo, Avena fatua
Method in brief: as §1

[14] = tested on: blackgrass; experiment: Test B pre/postemergence blackgrass; type: in vivo, Alopecurus myosuroides
Method in brief: as §1

[15] = tested on: velvetleaf; experiment: Test B pre/postemergence velvetleaf; type: in vivo, Abutilon theophrasti
Method in brief: as §1

[16] = tested on: rape; experiment: Test B pre/postemergence rape; type: in vivo, Brassica napus
Method in brief: as §1

[17] = Preemergence, Rate 62 g/ha, scale of 0 to 10 where 0 is no effect and 10 is complete control
[18] = Preemergence, Rate 500 g/ha, scale of 0 to 10 where 0 is no effect and 10 is complete control
[19] = Rate 62 g/ha, Postemergence, scale 0 to 10 (0 no effect, 10 complete control)
[20] = Rate 125 g/ha, Postemergence, scale of 0 to 10 where 0 is no effect and 10 is complete control
[21] = Rate 250 g/ha, Postemergence, scale of 0 to 10 where 0 is no effect and 10 is complete control
[22] = Rate 500 g/ha, Postemergence, scale 0 to 10, 0 no effect, 10 complete control
[23] = Preemergence, Rate 250 g/ha, scale of 0 to 10 where 0 is no effect and 10 is complete control
[24] = Rate 62 g/ha, headed Pre-emergence (flood test species), scale 0 to 10 (0 no effect, 10 complete control)
[25] = Rate 125 g/ha, Pre-emergence, flood test species, scale 0 to 10 where 0 is no effect and 10 is complete control
[26] = Rate 250 g/ha, Pre-emergence, flood-test species, scale 0 to 10, 0 is no effect, 10 is complete control
[27] = Rate 500 g/ha, Pre-emergence, flood test species, scale 0 to 10 (0 no effect, 10 complete control)

CC(C)N(C(=O)n1oc(=O)n(CCCN(C)C)c1=O)c1ccc(F)cc1 [Compound 323]
Nutsedge plant response rating [1, 17]: 0
Nutsedge plant response rating (0 to 10 scale) ([1]; Preemergence, Rate 125 g/ha): 0
Nutsedge plant response rating [1, 18]: 0
Nutsedge plant response rating [1, 19]: 0
Nutsedge plant response rating [1, 20]: 0
Plant response rating, Nutsedge [1, 21]: 0
Plant response rating, Nutsedge [1, 22]: 0
Sugarbeets plant response rating [2, 17]: 0
Sugarbeets plant response rating (0 to 10 scale) ([2]; Preemergence, Rate 125 g/ha): 0
Sugarbeets plant response rating [2, 23]: 0
Sugarbeets plant response rating [2, 18]: 0
Sugarbeets plant response rating [2, 19]: 0
Sugarbeets plant response rating [2, 20]: 0
Plant response rating, Sugarbeets [2, 21]: 0
Plant response rating, Sugarbeets [2, 22]: 0
Soybean plant response rating [3, 17]: 0
Soybean plant response rating (0 to 10 scale) ([3]; Preemergence, Rate 125 g/ha): 0
Soybean plant response rating [3, 23]: 0
Soybean plant response rating [3, 18]: 0
Soybean plant response rating [3, 19]: 0
Soybean plant response rating [3, 20]: 1
Plant response rating, Soybean [3, 21]: 2
Plant response rating, Soybean [3, 22]: 2
B. signalgrass plant response rating [4, 17]: 0
B. signalgrass plant response rating (0 to 10 scale, 0 is no effect, 10 is complete control) ([4]; Preemergence, Rate 125 g/ha): 0
B. signalgrass plant response rating [4, 23]: 0
B. signalgrass plant response rating [4, 18]: 0
B. signalgrass plant response rating [4, 19]: 0
B. signalgrass plant response rating [4, 20]: 0
Plant response rating, B. signalgrass [4, 21]: 0
Plant response rating, B. signalgrass [4, 22]: 0
Redroot pigweed plant response rating [5, 17]: 0
Redroot pigweed plant response rating (0 to 10 scale) ([5]; Preemergence, Rate 125 g/ha): 0
Redroot pigweed plant response rating [5, 23]: 0
Redroot pigweed plant response rating [5, 18]: 0
Redroot pigweed plant response rating [5, 19]: 0
Redroot pigweed plant response rating [5, 20]: 0
Plant response rating, Redroot pigweed [5, 21]: 0
Plant response rating, Redroot pigweed [5, 22]: 0
Morningglory plant response rating [6, 17]: 0
Morningglory plant response rating (0 to 10 scale) ([6]; Preemergence, Rate 125 g/ha): 0
Morningglory plant response rating [6, 23]: 0
Morningglory plant response rating [6, 18]: 0
Morningglory plant response rating [6, 19]: 0
Morningglory plant response rating [6, 20]: 0
Plant response rating, Morningglory [6, 21]: 2
Plant response rating, Morningglory [6, 22]: 3
Cocklebur plant response rating [7, 17]: 0
Cocklebur plant response rating (0 to 10 scale) ([7]; Preemergence, Rate 125 g/ha): 0
Cocklebur plant response rating [7, 23]: 0
Cocklebur plant response rating [7, 18]: 0
Cocklebur plant response rating [7, 19]: 0
Cocklebur plant response rating [7, 20]: 0
Plant response rating, Cocklebur [7, 21]: 0
Plant response rating, Cocklebur [7, 22]: 0
S. Flatsedge plant response rating [8, 24]: 0
S. Flatsedge plant response rating [8, 25]: 0
S. Flatsedge plant response rating [8, 26]: 0
S. Flatsedge plant response rating [8, 27]: 0
Rice plant response rating [9, 24]: 0
Rice plant response rating [9, 25]: 0
Rice plant response rating [9, 26]: 0
Rice plant response rating [9, 27]: 0
Bedstraw plant response rating [10, 17]: 0
Bedstraw plant response rating (0 to 10 scale) ([10]; Preemergence, Rate 125 g/ha): 0
Bedstraw plant response rating [10, 23]: 0
Bedstraw plant response rating [10, 19]: 0
Bedstraw plant response rating [10, 20]: 0
Corn plant response rating [11, 17]: 0
Corn plant response rating (0 to 10 scale) ([11]; Preemergence, Rate 125 g/ha): 0
Corn plant response rating [11, 23]: 0
Corn plant response rating [11, 18]: 0
Corn plant response rating [11, 19]: 0
Corn plant response rating [11, 20]: 0
Plant response rating, Corn [11, 21]: 0
Plant response rating, Corn [11, 22]: 0
Barnyardgrass plant response rating [12, 24]: 0
Barnyardgrass plant response rating [12, 25]: 0
Barnyardgrass plant response rating [12, 26]: 0
Barnyardgrass plant response rating [12, 27]: 0
Wild oats plant response rating [13, 17]: 0
Wild oats plant response rating (0 to 10 scale) ([13]; Preemergence, Rate 125 g/ha): 0
Wild oats plant response rating [13, 23]: 0
Wild oats plant response rating [13, 18]: 0
Wild oats plant response rating [13, 19]: 0
Wild oats plant response rating [13, 20]: 0
Plant response rating, Wild oats [13, 21]: 0
Plant response rating, Wild oats [13, 22]: 0
Blackgrass plant response rating [14, 17]: 0
Blackgrass plant response rating (0 to 10 scale) ([14]; Preemergence, Rate 125 g/ha): 0
Blackgrass plant response rating [14, 23]: 0
Blackgrass plant response rating [14, 18]: 0
Blackgrass plant response rating [14, 19]: 0
Blackgrass plant response rating [14, 20]: 0
Plant response rating, Blackgrass [14, 21]: 0
Plant response rating, Blackgrass [14, 22]: 0
Velvetleaf plant response rating [15, 17]: 0
Velvetleaf plant response rating (0 to 10 scale) ([15]; Preemergence, Rate 125 g/ha): 0
Velvetleaf plant response rating [15, 23]: 0
Velvetleaf plant response rating [15, 18]: 0
Velvetleaf plant response rating [15, 19]: 0
Velvetleaf plant response rating [15, 20]: 0
Plant response rating, Velvetleaf [15, 21]: 0
Plant response rating, Velvetleaf [15, 22]: 0
Rape plant response rating [16, 17]: 0
Rape plant response rating (0 to 10 scale) ([16]; Preemergence, Rate 125 g/ha): 0
Rape plant response rating [16, 23]: 0
Rape plant response rating [16, 18]: 0
Rape plant response rating [16, 19]: 0
Rape plant response rating [16, 20]: 0
Plant response rating, Rape [16, 21]: 0
Plant response rating, Rape [16, 22]: 0
